Measurements: ChEMBL document CHEMBL1201862, “PubChem BioAssay data set” (2004)
The source made the active and inactive calls.

How the values were obtained:
Type in all cases: functional
[1] = biological target: T1, Delta-type opioid receptor (Homo sapiens, UniProt P41143); test: HTS Image-Based Screen for Agonists of the DOR Receptor. [Related pubchem assays (depositor defined):AID1777, AID1786, AID2133]
[2] = biological target: Mu-type opioid receptor (Homo sapiens, UniProt P35372); test: HTS Image-Based Screen for Agonists of the MOR Receptor. [Related pubchem assays (depositor defined):AID1777, AID1785, AID1786, AID2133];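 further: imaging of beta-arrestin GFP recruitment into spots after receptor activation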
[3] = biological target: T1, Delta-type opioid receptor; test: HTS Image-Based Screen for Antagonists of the DOR Receptor. [Related pubchem assays (depositor defined):AID1777, AID1785, AID1786, AID2133]
[4] = biological target: T2, Kappa-type opioid receptor (Homo sapiens, UniProt P41145)
[5] = biological target: T2, Kappa-type opioid receptor; remark: listed apart in the source
[6] = biological target: T3, Cannabinoid receptor 2 (Homo sapiens, UniProt P34972); test: SAR analysis of antagonists of the Cannabinoid Receptor 2 using an Image-Based Assay - Set 2. [Related pubchem assays (depositor defined):AID1961, AID1965]
[7] = biological target: T4, G-protein coupled receptor 55 (Homo sapiens, UniProt Q9Y2T6); test: selective activators of receptor GPR55 – imaging, U2OS cells, beta-arrestin-GFP redistribution, primary screen (AID 1961)
[8] = biological target: T3, Cannabinoid receptor 2; test: SAR analysis of agonists of the Cannabinoid Receptor 2 using an Image-Based Assay - Set 2. [Related pubchem assays (depositor defined):AID1961, AID1965]
[9] = biological target: T4, G-protein coupled receptor 55; test: SAR analysis of selective Agonists of GPR55 using an Image-Based Assay. [Related pubchem assays (depositor defined):AID1961, AID1965]
[10] = biological target: T5, Cannabinoid receptor 1 (Homo sapiens, UniProt P21554); test: SAR analysis of antagonists of the Cannabinoid Receptor 1 using an Image-Based Assay. [Related pubchem assays (depositor defined):AID1961, AID1965]
[11] = biological target: T6, Rac GTPase-activating protein 1 (Homo sapiens, UniProt Q9H0H5); test: blockers of MgcRacGAP-driven Rac1 GTP hydrolysis – biochemical, ADP Hunter fluorescence, primary and confirmatory, confirmation (AID 624330)
T6 sequence (Q9H0H5 whole entry): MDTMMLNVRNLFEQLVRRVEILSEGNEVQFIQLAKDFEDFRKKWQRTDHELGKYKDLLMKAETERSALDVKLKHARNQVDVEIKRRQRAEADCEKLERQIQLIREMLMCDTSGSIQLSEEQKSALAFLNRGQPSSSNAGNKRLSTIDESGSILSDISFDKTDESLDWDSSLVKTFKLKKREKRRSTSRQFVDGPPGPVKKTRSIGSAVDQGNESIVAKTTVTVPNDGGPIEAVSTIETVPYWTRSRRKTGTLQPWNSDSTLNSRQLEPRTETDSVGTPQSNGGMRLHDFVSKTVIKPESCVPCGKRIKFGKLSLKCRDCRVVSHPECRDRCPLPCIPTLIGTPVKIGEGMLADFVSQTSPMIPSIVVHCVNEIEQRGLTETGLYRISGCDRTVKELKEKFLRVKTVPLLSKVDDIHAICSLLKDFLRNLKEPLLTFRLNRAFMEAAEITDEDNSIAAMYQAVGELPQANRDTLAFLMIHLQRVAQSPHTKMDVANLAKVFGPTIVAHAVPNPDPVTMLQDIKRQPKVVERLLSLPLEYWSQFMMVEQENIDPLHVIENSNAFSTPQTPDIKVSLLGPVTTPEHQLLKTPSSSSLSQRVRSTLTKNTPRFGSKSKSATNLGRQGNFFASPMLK

[12] = mitochondrial function rescue without frataxin homolog – Friedreich's ataxia, plus single-dose screen, dose response (AID 1465);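 further: yeast depleted of Yfh1p frataxin homolog grown on glycerol needing respiration; WST-1 tetrazolium dye reduction as measure of cellular dehydrogenase metabolic activity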
[13] = biological target: Prothrombin (Bos taurus, UniProt P00735); test: thrombin protease inhibitors – biochemical, fluorescence polarization, uHTS hits, dose response (AID 602369)
[14] = biological target: Intestinal-type alkaline phosphatase (Mus musculus, UniProt P24822); test: mouse intestinal alkaline phosphatase activators, dose response, biochemical, luminescence, uHTS hits (AID 488783)
[15] = biological target: Intestinal-type alkaline phosphatase (Homo sapiens, UniProt P09923); test: activation of human intestinal alkaline phosphatase – biochemical, dose response (AID 488873)
[16] = biological target: 72 kDa type IV collagenase (Homo sapiens, UniProt P08253); test: Dose Response validation of uHTS RPN11 inhibitor hits using a MMP-2 Fluorescence assay.
[17] = biological target: T7, Alkaline phosphatase, tissue-nonspecific isozyme (Homo sapiens, UniProt P05186); test: activation of tissue-nonspecific alkaline phosphatase – biochemical, TNAP isozyme, mouse IAP uHTS hits, selectivity assay for mouse IAP activator project, dose response (AID 488880)
T7 sequence (P05186 whole entry): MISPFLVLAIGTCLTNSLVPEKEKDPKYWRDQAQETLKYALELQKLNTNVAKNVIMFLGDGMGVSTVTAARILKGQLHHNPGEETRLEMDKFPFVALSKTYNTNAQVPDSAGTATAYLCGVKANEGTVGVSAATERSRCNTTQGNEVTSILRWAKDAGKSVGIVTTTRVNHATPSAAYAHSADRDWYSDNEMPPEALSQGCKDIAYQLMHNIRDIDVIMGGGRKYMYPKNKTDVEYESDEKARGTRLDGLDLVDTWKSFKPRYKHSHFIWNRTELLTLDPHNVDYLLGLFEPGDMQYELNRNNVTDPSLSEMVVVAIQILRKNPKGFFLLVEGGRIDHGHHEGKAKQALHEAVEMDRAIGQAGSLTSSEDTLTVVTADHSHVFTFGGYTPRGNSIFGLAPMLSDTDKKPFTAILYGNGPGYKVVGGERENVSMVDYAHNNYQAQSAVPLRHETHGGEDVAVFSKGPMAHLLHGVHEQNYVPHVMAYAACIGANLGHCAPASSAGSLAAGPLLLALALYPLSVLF

[18] = biological target: 26S proteasome non-ATPase regulatory subunit 14 (Homo sapiens, UniProt O00487); test: inhibition of proteasome subunit RPN11 – biochemical, fluorescence polarization, uHTS hits, confirmation (AID 602368)
[19] = biological target: T8, G-protein coupled receptor 35 (Homo sapiens, UniProt Q9HC97); test: SAR analysis of Antagonists of the GPR35 Receptor using an Image-Based Assay - Set 6. [Related pubchem assays (depositor defined):AID2013, AID2026]
[20] = biological target: T3, Cannabinoid receptor 2; test: SAR analysis of agonists of the Cannabinoid Receptor 2 using an Image-Based Assay - Set 3. [Related pubchem assays (depositor defined):AID2013, AID2026]
[21] = biological target: T8, G-protein coupled receptor 35; test: SAR analysis of Agonists of the GPR35 Receptor using an Image-Based Assay - Set 4. [Related pubchem assays (depositor defined):AID2013, AID2026]
[22] = biological target: T4, G-protein coupled receptor 55; test: SAR Analysis of Selective Antagonists of GPR55 using an Image-Based Assay - Set 4. [Related pubchem assays (depositor defined):AID2013, AID2026]
[23] = biological target: T3, Cannabinoid receptor 2; test: SAR analysis of antagonists of the Cannabinoid Receptor 2 using an Image-Based Assay - Set 3. [Related pubchem assays (depositor defined):AID2013, AID2026]
[24] = biological target: T5, Cannabinoid receptor 1; test: SAR analysis of agonists of the Cannabinoid Receptor 1 using an Image-Based Assay - Set 4. [Related pubchem assays (depositor defined):AID2013, AID2026]
[25] = biological target: T5, Cannabinoid receptor 1; test: SAR analysis of antagonists of the Cannabinoid Receptor 1 using an Image-Based Assay - Set 4. [Related pubchem assays (depositor defined):AID2013, AID2026]

T4 sequence (Q9Y2T6 whole entry): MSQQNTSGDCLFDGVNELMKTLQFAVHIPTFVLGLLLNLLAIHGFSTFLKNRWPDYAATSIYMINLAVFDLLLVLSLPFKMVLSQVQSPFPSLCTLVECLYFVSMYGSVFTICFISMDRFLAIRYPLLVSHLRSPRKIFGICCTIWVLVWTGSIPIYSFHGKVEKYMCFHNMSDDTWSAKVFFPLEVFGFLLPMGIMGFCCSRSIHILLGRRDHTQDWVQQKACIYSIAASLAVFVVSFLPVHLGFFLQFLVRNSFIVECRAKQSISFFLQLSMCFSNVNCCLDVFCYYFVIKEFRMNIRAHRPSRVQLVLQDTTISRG
T5 sequence (P21554 whole entry): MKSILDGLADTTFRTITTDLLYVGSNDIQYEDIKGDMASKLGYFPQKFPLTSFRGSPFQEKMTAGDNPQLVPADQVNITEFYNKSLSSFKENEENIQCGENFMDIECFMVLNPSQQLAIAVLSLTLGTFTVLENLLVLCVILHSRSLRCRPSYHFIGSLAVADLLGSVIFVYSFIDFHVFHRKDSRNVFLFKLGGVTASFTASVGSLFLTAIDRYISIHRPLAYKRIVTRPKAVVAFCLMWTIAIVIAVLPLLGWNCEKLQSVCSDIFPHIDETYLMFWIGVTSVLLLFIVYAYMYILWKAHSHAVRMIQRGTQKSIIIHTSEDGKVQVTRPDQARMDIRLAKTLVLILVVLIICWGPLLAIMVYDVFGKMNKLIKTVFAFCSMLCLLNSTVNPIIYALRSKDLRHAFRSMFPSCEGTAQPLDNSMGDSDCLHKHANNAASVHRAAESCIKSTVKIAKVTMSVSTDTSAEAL
T3 sequence (P34972 whole entry): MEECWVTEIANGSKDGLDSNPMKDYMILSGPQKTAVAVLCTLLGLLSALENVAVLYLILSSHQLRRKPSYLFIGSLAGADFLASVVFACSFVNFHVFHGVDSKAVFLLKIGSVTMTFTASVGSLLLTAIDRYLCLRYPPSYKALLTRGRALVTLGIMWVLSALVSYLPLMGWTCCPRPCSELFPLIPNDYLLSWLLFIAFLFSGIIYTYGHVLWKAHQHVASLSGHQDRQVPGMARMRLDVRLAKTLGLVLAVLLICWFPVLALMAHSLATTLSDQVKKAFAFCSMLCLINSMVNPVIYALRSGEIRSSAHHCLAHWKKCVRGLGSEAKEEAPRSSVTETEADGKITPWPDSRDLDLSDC
T1 sequence (P41143 whole entry): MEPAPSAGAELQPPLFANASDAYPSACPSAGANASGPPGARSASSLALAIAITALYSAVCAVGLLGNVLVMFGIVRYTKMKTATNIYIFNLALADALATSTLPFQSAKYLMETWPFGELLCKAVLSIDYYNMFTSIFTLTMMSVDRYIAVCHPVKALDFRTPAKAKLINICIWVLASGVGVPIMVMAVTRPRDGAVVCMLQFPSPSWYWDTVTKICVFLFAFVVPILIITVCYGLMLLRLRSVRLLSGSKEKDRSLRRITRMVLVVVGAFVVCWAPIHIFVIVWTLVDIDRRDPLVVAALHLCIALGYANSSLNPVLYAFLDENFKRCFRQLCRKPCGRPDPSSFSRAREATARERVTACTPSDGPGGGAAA
T2 sequence (P41145 whole entry): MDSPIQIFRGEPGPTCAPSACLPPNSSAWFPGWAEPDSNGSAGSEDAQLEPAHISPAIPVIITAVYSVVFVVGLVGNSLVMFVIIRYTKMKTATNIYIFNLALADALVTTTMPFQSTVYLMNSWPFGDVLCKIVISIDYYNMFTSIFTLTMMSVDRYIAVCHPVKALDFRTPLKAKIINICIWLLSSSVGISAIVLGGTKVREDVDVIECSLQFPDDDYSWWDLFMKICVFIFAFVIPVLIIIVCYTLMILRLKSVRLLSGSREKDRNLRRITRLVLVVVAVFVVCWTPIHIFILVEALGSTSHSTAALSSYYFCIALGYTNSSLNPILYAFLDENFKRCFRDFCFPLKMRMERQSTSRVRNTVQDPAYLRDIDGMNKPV
T8 sequence (Q9HC97 whole entry): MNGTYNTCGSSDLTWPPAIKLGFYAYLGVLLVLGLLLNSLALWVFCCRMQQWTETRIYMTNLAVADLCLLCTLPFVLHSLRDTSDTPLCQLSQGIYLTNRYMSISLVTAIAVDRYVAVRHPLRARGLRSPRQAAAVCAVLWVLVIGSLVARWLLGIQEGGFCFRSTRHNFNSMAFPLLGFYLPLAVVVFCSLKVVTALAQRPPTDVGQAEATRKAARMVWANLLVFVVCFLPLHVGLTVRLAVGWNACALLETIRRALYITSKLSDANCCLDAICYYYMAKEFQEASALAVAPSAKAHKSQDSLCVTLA
Intestinal-type alkaline phosphatase (Mus musculus, UniProt P24822), sequence (P24822 whole entry): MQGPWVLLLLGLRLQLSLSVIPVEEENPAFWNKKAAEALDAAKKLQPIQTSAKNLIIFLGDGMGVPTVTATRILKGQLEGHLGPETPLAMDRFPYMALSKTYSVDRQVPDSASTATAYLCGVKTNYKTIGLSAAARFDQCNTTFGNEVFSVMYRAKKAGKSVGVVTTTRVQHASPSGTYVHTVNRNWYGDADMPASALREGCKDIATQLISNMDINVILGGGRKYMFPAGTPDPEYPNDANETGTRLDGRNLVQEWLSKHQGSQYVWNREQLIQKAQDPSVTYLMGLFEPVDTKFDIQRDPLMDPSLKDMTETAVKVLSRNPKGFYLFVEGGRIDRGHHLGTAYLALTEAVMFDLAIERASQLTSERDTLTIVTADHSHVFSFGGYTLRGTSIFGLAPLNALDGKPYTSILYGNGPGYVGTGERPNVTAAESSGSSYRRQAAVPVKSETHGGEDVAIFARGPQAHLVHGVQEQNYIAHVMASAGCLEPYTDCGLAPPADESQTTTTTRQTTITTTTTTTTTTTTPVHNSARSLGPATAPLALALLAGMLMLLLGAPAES
26S proteasome non-ATPase regulatory subunit 14, sequence (O00487 whole entry): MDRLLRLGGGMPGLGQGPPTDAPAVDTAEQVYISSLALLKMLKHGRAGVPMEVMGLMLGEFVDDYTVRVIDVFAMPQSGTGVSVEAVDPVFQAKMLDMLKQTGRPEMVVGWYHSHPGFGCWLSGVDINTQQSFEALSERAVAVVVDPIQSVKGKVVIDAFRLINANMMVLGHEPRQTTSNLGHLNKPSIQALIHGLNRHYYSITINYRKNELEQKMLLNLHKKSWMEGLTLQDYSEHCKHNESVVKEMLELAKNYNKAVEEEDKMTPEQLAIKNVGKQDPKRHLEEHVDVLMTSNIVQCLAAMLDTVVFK
Intestinal-type alkaline phosphatase (Homo sapiens, UniProt P09923), sequence (P09923 whole entry): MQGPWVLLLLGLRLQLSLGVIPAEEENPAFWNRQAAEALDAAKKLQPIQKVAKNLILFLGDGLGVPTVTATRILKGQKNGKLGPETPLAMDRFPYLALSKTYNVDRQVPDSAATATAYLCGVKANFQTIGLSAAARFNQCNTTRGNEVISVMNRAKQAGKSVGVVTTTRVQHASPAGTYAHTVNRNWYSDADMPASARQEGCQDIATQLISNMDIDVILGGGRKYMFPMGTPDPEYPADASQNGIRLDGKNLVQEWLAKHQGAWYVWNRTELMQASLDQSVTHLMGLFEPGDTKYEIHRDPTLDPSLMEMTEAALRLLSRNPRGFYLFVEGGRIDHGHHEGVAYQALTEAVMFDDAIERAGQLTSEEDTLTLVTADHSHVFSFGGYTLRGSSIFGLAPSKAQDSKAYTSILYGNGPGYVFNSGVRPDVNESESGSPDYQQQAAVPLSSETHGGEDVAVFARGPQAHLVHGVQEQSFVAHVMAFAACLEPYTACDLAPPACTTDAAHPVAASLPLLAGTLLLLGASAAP
72 kDa type IV collagenase, sequence (P08253 whole entry): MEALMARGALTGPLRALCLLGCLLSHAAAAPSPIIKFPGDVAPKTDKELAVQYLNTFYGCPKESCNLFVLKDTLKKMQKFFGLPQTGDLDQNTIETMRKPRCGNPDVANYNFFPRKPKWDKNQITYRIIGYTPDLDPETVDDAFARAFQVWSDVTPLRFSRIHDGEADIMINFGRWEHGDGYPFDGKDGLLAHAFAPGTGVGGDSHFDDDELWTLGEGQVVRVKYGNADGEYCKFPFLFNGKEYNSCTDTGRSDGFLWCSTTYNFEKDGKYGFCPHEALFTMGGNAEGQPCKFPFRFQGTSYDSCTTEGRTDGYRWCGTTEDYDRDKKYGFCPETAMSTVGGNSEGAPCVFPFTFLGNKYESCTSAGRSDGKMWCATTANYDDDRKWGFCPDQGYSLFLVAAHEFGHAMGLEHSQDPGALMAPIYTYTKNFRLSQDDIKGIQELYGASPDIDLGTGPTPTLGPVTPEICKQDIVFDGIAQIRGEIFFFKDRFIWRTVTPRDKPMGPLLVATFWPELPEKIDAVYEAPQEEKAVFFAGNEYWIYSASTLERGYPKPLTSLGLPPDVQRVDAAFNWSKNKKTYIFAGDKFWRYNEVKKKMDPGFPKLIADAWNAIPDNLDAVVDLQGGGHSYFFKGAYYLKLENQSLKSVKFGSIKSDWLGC
Mu-type opioid receptor, sequence (P35372 whole entry): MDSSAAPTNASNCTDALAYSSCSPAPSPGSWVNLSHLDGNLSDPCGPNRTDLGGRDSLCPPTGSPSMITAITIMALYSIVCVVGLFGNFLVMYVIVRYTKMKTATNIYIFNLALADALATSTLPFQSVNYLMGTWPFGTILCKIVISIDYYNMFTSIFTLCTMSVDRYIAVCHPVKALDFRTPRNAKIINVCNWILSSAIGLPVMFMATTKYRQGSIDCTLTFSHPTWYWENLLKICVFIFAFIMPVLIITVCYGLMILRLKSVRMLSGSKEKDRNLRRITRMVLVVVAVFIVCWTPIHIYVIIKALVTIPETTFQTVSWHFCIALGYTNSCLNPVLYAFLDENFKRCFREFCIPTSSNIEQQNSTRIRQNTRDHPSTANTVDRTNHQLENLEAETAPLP

CC(Sc1nnc(CN2CCCC2)n1Cc1ccccc1)C(=O)Nc1ccc(F)cc1 (stereo not given)
3.82 µM: EC50 [5]
3.33 µM: EC50 [4]
inactive: EC50 [1] > 32 µM | EC50 [2] > 32 µM | IC50 [3] > 32 µM

O=C(CSc1nc2ccccc2s1)N1c2ccccc2Sc2ccc(Cl)cc21
active: EC50 [7] 0.84 µM | EC50 [8] 0.0905 µM | EC50 [9] 0.748 µM
inactive: IC50 [6] > 32 µM | IC50 [10] > 32 µM

Cc1cc(/C=C2\SC(=S)NC2=O)c(C)[nH]1
active: IC50 [11] 207 µM | EC50 [12] > 100 µM | IC50 [13] 33 µM | EC50 [14] 56.6 µM | EC50 [15] 68 µM | IC50 [16] 20.4 µM | EC50 [17] 58.1 µM | IC50 [18] 26.5 µM

O=C(Cc1ccc(F)cc1)N1CCC(n2nc(-c3ccccc3)oc2=O)CC1
inactive: IC50 [19] > 32 µM | EC50 [20] > 32 µM | EC50 [21] > 32 µM | IC50 [22] > 32 µM | IC50 [23] > 32 µM | EC50 [24] > 32 µM | IC50 [25] 11.7 µM
